{"source": "patent US20220282222A1", "about": "“BIO-PRINTED KIDNEY TISSUE” (MURDOCH CHILDREN'S RESEARCH INSTITUTE, priority 2019, published 2022)", "key": {"[1]": {"system": "bio-printed kidney organoids", "experiment": "Organoid viability assessment by ATP content (CellTiter-Glo / CellTiter-Glo 3D) after drug treatment", "settings": "for Cell viability as measured by cellular ATP content: 96-well format, 72-hour treatment, wide concentration range (1.5 μg/mL to 25 mg/mL); for IC50: Homo sapiens, 72 h", "method": "(§1) Doxorubicin (Sigma-Aldrich, D1515) stock solution was prepared in DMSO. Amikacin, Tobramycin, Gentamycin, Neomycin, and Streptomycin were all procured through Sigma Aldrich (St. Louis, Mo.) and prepared as a 25 mg/ml solution in APEL media. Dosing for 6-well nephrotoxicity studies was performed by initially diluting doxorubicin DMSO stock in APEL media, and subsequently diluting further with additional media to achieve concentrations ranging from 0.3 to 10 μM. Dosing for 96-well nephrotoxicity evaluation was performed by serial dilution. For Doxorubicin, serial dilution of DMSO stocks was added to APEL media to achieve concentrations ranging from 24 nM to 25 μM. Aminoglycoside stock solutions were diluted serially with APEL media to generate dosing concentrations ranging from 1.5 μg/mL to 25 mg/mL. Drug dosing was initiated after day 21 or day 22 of the differentiation protocol. Dosing was performed by applying the full well volume of APEL medium±test article to the apical basket of a Transwell permeable support (4 mL for 6-well plates, 300 μL for 96-well plates). As media containing test articles was added to the Transwell permeable support, the organoids were fully submerged and exposed to any added compounds as the apical and basolateral compartments equilibrated. Drug-supplemented medium was replaced every other day until designated harvest time point.\nKidney organoid viability following drug treatment was assessed by measuring ATP content with CellTiter-Glo or CellTiter-Glo 3D viability assays (Promega, Madison, Wis., USA). In brief, harvested organoids from bio-printed in 6-well plates were individually loaded into Precellys tubes (Bertin Technologies, Bretonneux, France) with CellTiter-Glo buffer and dissociated using a Precellys 24 tissue homogenizer (Bertin Technologies, Bretonneux, France). Homogenized organoids were incubated at room temperature for 10 minutes, then centrifuged at 1000 g for 2 minutes to separate buffer from homogenizing beads. Supernatants were transferred to a white opaque 96-well plate for luminescence measurement on a microplate reader (BMG Labtech, Germany). […] To analyse the ATP content in organoids bio-printed on 96-well plates, all media was aspirated and CellTiter-Glo 3D reagent was added to the apical chamber of Transwell permeable support. The plate was shaken at 400 rpm for 5 minutes at room temperature, and then allowed to sit for 25 minutes prior to luminescent measurement in a white opaque 96-well plate on a microplate reader (BMG Labtech, Germany). Viability analysis was reported as percent of control by normalizing the ATP content of treated organoids relative to control organoids. […]"}, "[2]": {"system": "bio-printed kidney organoids", "experiment": "Quantitative RT-PCR gene expression analysis following drug exposure", "type": "cell-based, human", "settings": "72 hours", "method": "as §1\nTotal RNA extraction from kidney organoids following drug exposure was performed using an Rneasy Mini kit (Qiagen, Germany) per manufacturer's instructions. RNA was quantified with spectrophotometry with a NanoDrop 2000 (Thermo Fisher, Carlsbad, Calif.). To analyse gene expression, TaqMan Fast One-Step qPCR Master Mix (Applied Biosystems, Foster City, Calif.), TaqMan Probes for genes of interest (ThermoFisher, Carlsbad, Calif.), and house-keeping gene probes (Applied Biosystems, Foster City, Calif.) were combined in assigned wells with RNA. All qPCR reactions were performed and analysed on a StepOnePlus qRT-PCR system (Applied Biosystems, Foster City, Calif.). All data was normalized to house-keeping gene GAPDH prior to normalizing to control samples."}, "[3]": {"system": "podocytes of the organoid glomeruli", "experiment": "Immunofluorescence analysis of bio-printed organoid sections after Doxorubicin treatment", "type": "cell-based, human", "settings": "10 μM Doxorubicin, 72 hours", "method": "For paraffin-embedded organoids, deparaffinized sections were antigen retrieved in citrate buffer, pH 6.0 (Diagnostic BioSystems, Pleasonton, CA #K035) then blocked in 5% chick serum diluted in TBS-T (v/v) prior to immunofluorescence. For whole mount organoids, organoid harvest, fixation and blocking, and immunofluorescence of prepared sections and whole organoids was performed as described previously (Vanslambrouck J M, et al. J Am Soc Nephrol 30, 1811-1823 (2019)). Images were obtained as described in Vanslambrouck J M, et al. or using an Andor spinning disk confocal microscope with Nikon 25×1.05NA silicone immersion objective.\nDoxorubicin (Sigma-Aldrich, D1515) stock solution was prepared in DMSO. Amikacin, Tobramycin, Gentamycin, Neomycin, and Streptomycin were all procured through Sigma Aldrich (St. Louis, Mo.) and prepared as a 25 mg/ml solution in APEL media. Dosing for 6-well nephrotoxicity studies was performed by initially diluting doxorubicin DMSO stock in APEL media, and subsequently diluting further with additional media to achieve concentrations ranging from 0.3 to 10 μM. Dosing for 96-well nephrotoxicity evaluation was performed by serial dilution. For Doxorubicin, serial dilution of DMSO stocks was added to APEL media to achieve concentrations ranging from 24 nM to 25 μM. […]"}, "[4]": {"settings": "10 μM Doxorubicin, normalized to GAPDH and control"}}, "note": "Entries after “also recorded” stand apart in the source; their conditions may differ. Read-outs that look alike come from different tables or passages of the source.", "data": [{"compound": "Gentamycin", "values": [{"measurement": "Cell viability as measured by cellular ATP content", "setting": "[1]", "value": "decreased in a concentration-dependent fashion"}]}, {"compound": "Neomycin", "values": [{"measurement": "Cell viability as measured by cellular ATP content", "setting": "[1]", "value": "decreased in a concentration-dependent fashion"}]}, {"compound": "COc1cccc2c1C(=O)c1c(O)c3c(c(O)c1C2=O)C[C@@](O)(C(=O)CO)C[C@@H]3O[C@H]1C[C@H](N)[C@H](O)[C@H](C)O1", "note": "[Doxorubicin]", "values": [{"measurement": "Expression of podocyte marker NPHS1", "setting": "[2]; 2 μM Doxorubicin", "value": "downregulated"}, {"measurement": "Expression of podocyte marker PODXL", "setting": "[2]; 2 μM Doxorubicin", "value": "downregulated"}, {"measurement": "Expression of proximal tubule gene CUBN", "setting": "[2]; 2 μM or 10 μM Doxorubicin", "value": "only downregulated in response to 10 μM Doxorubicin"}, {"measurement": "Expression of apoptotic indicator Bcl2-associated X protein (BAX)", "setting": "[2]; [4]", "value": "upregulation"}, {"measurement": "Expression of kidney injury molecule KIM1 (HAVCR)", "setting": "[2]; [4]", "value": "upregulation"}, {"measurement": "Caspase 3 activation (cleaved caspase 3, apoptosis) in podocytes", "setting": "[3]", "value": "induction of apoptosis; also recorded: specific activation of caspase 3"}, {"measurement": "MAFB staining within podocytes of organoid glomeruli", "setting": "[3]", "value": "podocyte specific loss of MAFB expression; also recorded: loss of MAFB staining"}, {"measurement": "IC50", "setting": "[1]; read-out: 6-well IC50 (viability, ATP content)", "value": "3.9 ± 1.8", "unit": "µM"}, {"measurement": "IC50", "setting": "[1]; read-out: 96-well IC50 (viability, ATP content)", "value": "3.1 ± 1", "unit": "µM"}]}]}
